From the supplement of paper PMC10307832 come the findings set out here.

Compound in one assay: C(C(=O)C(=O)O)Br [Bromopyruvate]
As to the kind of experiment: relative viability (nuclei count vs DMSO), 5 days (fraction); higher = more cells survive. The essentials:
(§1)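 A plate was accepted only when its control CV was below 25% and the cells had doubled at least once. Viability is defined from nuclear counts as treated wells divided by vehicle wells, with the median taken across plates. That median covers lung cancer cell lines grown in 1536-well plates, dosed by pinning at five √10-spaced library-drug concentrations, and counted in MetaXpress from 4× Hoechst images after 5 days.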

Compound in a further assay: CC(O)(CS(=O)(=O)c1ccc(F)cc1)C(=O)Nc1ccc(C#N)c(C(F)(F)F)c1 [Bicalutamide]
The assay is described as above. The method in brief: as §1

For the cell line RERF-LC-KJ, the relative viability in the assay with Bromopyruvate (1 µM) came to 1.04; in the assay with Bromopyruvate (3.162 µM), 1.02; with Bromopyruvate (10 µM) it was 1.13; with Bromopyruvate (31.62 µM), 1.02; with Bromopyruvate (100 µM), 0.98; with Bicalutamide (0.08 µM), 1.01. Besides, the relative viability in the assay with Bicalutamide (0.253 µM) came out at 0.985; in the assay with Bicalutamide (0.8 µM), 1.15; in the assay with Bicalutamide (2.53 µM) it was 0.982.

As to SK-LU-1, the relative viability was found to be 1.07 with Bromopyruvate (1 µM); 0.93 in the assay with Bromopyruvate (3.162 µM); 1.2 with Bromopyruvate (10 µM); 0.935 with Bromopyruvate (31.62 µM); 0.943 with Bromopyruvate (100 µM); 1.11 with Bicalutamide (0.08 µM). Besides, the figures for the relative viability with Bicalutamide (0.253 µM), with Bicalutamide (0.8 µM) and with Bicalutamide (2.53 µM) were 1.02, 1.23 and 1.02, respectively.

With SK-MES-1, the relative viability in the assay with Bromopyruvate (1 µM) came to 0.99; with Bromopyruvate (3.162 µM) it was 1.07; in the assay with Bromopyruvate (10 µM), 1.12; with Bromopyruvate (31.62 µM) it was 0.958; with Bromopyruvate (100 µM) it was 1.05; in the assay with Bicalutamide (0.08 µM), 1.02. Also, the relative viability with Bicalutamide (0.253 µM) stood at 0.961; in the assay with Bicalutamide (0.8 µM), 1.09; with Bicalutamide (2.53 µM), 0.971.

In the case of SW 900, the relative viability in the assay with Bromopyruvate (1 µM) stood at 0.923; in the assay with Bromopyruvate (3.162 µM) it was 0.774; in the assay with Bromopyruvate (10 µM), 0.754; in the assay with Bromopyruvate (31.62 µM), 0.881; with Bromopyruvate (100 µM), 0.883; with Bicalutamide (0.08 µM), 0.847. In addition, the results for the relative viability in the assay with Bicalutamide (0.253 µM), with Bicalutamide (0.8 µM) and with Bicalutamide (2.53 µM) were 0.858, 0.9 and 0.742, respectively.

As to SW 1573, the relative viability is 1.03 with Bromopyruvate (1 µM); 0.995 in the assay with Bromopyruvate (3.162 µM); 1.13 with Bromopyruvate (10 µM); 0.925 with Bromopyruvate (31.62 µM); 0.385 with Bromopyruvate (100 µM); 1.02 with Bicalutamide (0.08 µM). Besides, the relative viability came to 0.757 with Bicalutamide (0.253 µM), 1.15 with Bicalutamide (0.8 µM) and 0.969 in the assay with Bicalutamide (2.53 µM).
